We go through two compounds from patent publication EP2792354A2, “COMPOSITION OF […] ACUTE AND CHRONIC HEPATIC ENCE[…] METHOD FOR TREATING ACUTE AND CHRONIC HEPATIC ENCEPHALOPATHY” (Obshchestvo S Ogranichennoj Otvetstvennostju …, priority 2011, dated 2012).

For experiment [1] the following is noted: type 2 diabetes (D2) mice, CCl4, injections 3 days; alive animals.
Procedure: In the experiments, male albino mice weighing 20 - 35 g after 12 hours of fasting. • 1. […] The recommended classification of the stages of HE for laboratory animals was used (116). • 2.1 The models of acute liver failure , resulting in necrosis and fatty degeneration of the liver cells due to oxidative stress , by introducing :CCl4 (2 - 4ml/kg subcutaneously or i.p.); acetaminophen-AAF (300 - 500mg/kg i.p.) or thioacetamide (TAA , 300 - 500mg / kg i.p.), in accordance with known data (103,104,116-118). […] Control the level of glucose, insulin , ALT , bilirubin, glycerol, triglycerides and fatty acids in the blood and in the liver, histological examination of the liver was carried out. • 2.2.2 The model of type 2 diabetes, according to the data of (115), in which after 1 - 2 months of feeding fat, animals were injected i.p. 50mg/kg of streptozotocin (to suppress the activity of β-cells) and then 15 days later , after controlling for the main indicators of the blood ,were used in the experiments.
The comparison of the efficacy of compositions ∑3 and LoLa on the alive diabetic animals treated with CCL4 and protectors used (according to pp.4-6 of Tab.2)
Experiment [2] relates to acute HE, induced by ammonia injection in mice. The experiment is described as follows: CCl4 pretreatment 24 hours before lethal dose of NH4Cl (preconditioning), animal survival. Format: in vivo. The settings on record: CCl4 2 ml/kg wt 24 hours before NH4Cl LD100+; NaCl instead of protector. On the procedure:
Table 1. […] Introduction of various doses of NH4 (12-14 mmol / kg) at 24 hours after administration of these toxins, can cause the development of acute HE and death of most or all animals. However, this effect depends on the dose used toxins CCl4. It can be seen that low doses of CCl4 (2ml/kg), being administered to intact animals , results in almost total protection against the lethal dose of NH4, resulting in the survival of 80 % of treated animals, i.e. there is the effect of preconditioning.

For the compound `[Cl-].[Na+]` [NaCl], in experiment [1], the AAT plasma is given as 1540±350 U/L, the “Glucose Plasma” value is given as 13,1±0,8 mMol and the “LCFA Plasma” value is recorded as 1,55±0,28 mMol.
In the case of `ClC(Cl)(Cl)Cl` [CCl4], the “% survival” value in experiment [2] was 80%.
